From publication PMC10714390, “Quinoline Compounds Targeting the c-Ring of ATP Synthase Inhibit Drug-Resistant Pseudomonas aeruginosa” (ACS Infectious Diseases, 2023)
Several values for one entry are separate records, joined by “and”; a condition that tells them apart may be missing. Equal values may be shown once.

What was measured:
[1] = system: P. aeruginosa (ATCC 9027); assay: Antimicrobial susceptibility (broth microdilution), PA 9027; format: cell-based, Pseudomonas aeruginosa; details: for MIC: Pseudomonas aeruginosa, ATCC9027, read-out: antibacterial activity (MIC) PA 9027; for antibacterial activity in words, PA 9027: summary of Table 1
Procedure: (§1) The following are general steps, unless otherwise noted. All steps were completed using aseptic techniques. All media and glassware were sterilized via an autoclave at 121 °C for 60 min. All agitation occurred at 160 rpm in a temperature-controlled console shaker (Excella E25) at 37 °C. Full-strength tryptic soy broth (TSB) was made by dissolving 30 g of BD Bacto TSB powder in 1 L of deionized water. Purchased and acquired bacterial strains used were E. coli (ATCC 25922), P. aeruginosa (ATCC 9027), drug-resistant P. aeruginosa from ATCC Panel MP-23 (BAA 2108, BAA 2109, BAA 2110), and P. aeruginosa efflux knockout GKCW120 (PΔ6)[6] provided by Zgurskaya and co-workers at the University of Oklahoma.
(§2) Susceptibility testing was performed in biological triplicate using the broth microdilution method as outlined by the Clinical and Laboratory Standards Institute. […] Briefly, to each well, 1 μL of compound in DMSO, 89 μL of TSB, and 10 μL of bacterial inoculum, grown from a single colony in 10 mL of TSB for 4–6 h, were added. After incubation for 12–15 h at 37 °C, absorbance at 590 nm was read on a Biotek Synergy HTX Multimode plate reader. Data were processed by background subtracting the media absorbance and then normalizing the data to full bacterial growth with the vehicle only. MIC is defined as the lowest concentration of antibiotic or antibiotic/adjuvant combination that achieves ≥85% growth inhibition, which corresponds to no visible growth.
(§3) Initial antibacterial activity screen of compounds 4, 5, and S1-S6
(§4) Compounds 4, 5, and S1-S6 were screened for initial antibiotic activity against a susceptible laboratory strain of EC (designated EC 25922), and non-virulent, biofilm forming strain of PA (designated PA 9027), and PD6 (efflux knockout strain6) at 128 µg/mL in DMSO. Sterilization and Antimicrobial Susceptibility Assay procedures utilized were the same as described in the methods.
(§5) Table S1. Antibacterial activity screening results for compounds 4, 5, and S1-S6 at 128 µg/mL
(§6) Table S1. Antibacterial activity screening results for compounds 4, 5, and S1-S6 at 128 µg/mL.

[2] = system: P. aeruginosa efflux knockout GKCW120 (PΔ6); assay: Antimicrobial susceptibility (broth microdilution), PΔ6 efflux knockout; format: cell-based, Pseudomonas aeruginosa; details: for Antibacterial activity screening result, P∆6: at 128 µg/mL in DMSO; for antibacterial activity (MIC) PΔ6: n = 3, >85% reduction in growth at OD 590 nm; for antibacterial activity in words, PΔ6: summary of Table 1
Procedure: as §1, §2, §3, §4, §5, §6

PA ATP synthase = target: T1, PA ATP synthase (Pseudomonas aeruginosa, UniProt Q9HT15); assay: NADH-driven ATP synthesis inhibition, PA inverted membrane vesicles; format: biochemical; details: for Hill coefficient of dose response fit, PA vesicles: inhibition of ATP synthesis activity; for IC50: inverted membrane vesicles from PA 9027, NADH-driven, end point luminescence assay
T1 construct: Inverted membrane vesicles were prepared from PA 9027; endogenous in cells; host or cells: Pseudomonas aeruginosa ATCC 9027, inverted membrane vesicles
Procedure: (§7) Vesicles were prepared from P. aeruginosa and transformed E. coli cells as previously described.[22] Briefly, cells were grown in LB liquid medium at 37 °C with shaking and harvested by centrifugation after 7 h of growth. Cultures of transformant E. coli included 100 μg/mL ampicillin. Cells were disrupted in TMG buffer (50 mM Tris-HCl, MgCl2, 10% (v/v) glycerol, pH 7.5) using an Avestin B15 homogenizer at 19,000 psi. After unbroken cells and debris were cleared by centrifugation at 9000g, inverted vesicles were collected by centrifugation at 193,000g, resuspended in TMG buffer, and stored at −80 °C. Protein concentrations were determined using a modified Lowry assay.[25]
(§8) Continuous ATP synthesis activity of inverted membrane vesicles was measured using a luciferin/luciferase luminescence assay as previously described.[22] Inhibition of ATP synthesis activity by test compounds was determined using an end point assay essentially as previously described.[18],[26] In this assay, the synthesis reaction was initiated by 2.5 mM NADH, proceeded for 10 min, and was stopped with 1% trichloroacetic acid, 2 mM CCCP, and 10 mM EDTA. Samples from each reaction were diluted 500-fold prior to the addition of luciferase since quinoline compounds are known to inhibit luciferase.[27] This dilution was sufficient to minimize inhibition of luciferase (Figure S4). Each replicate set included a positive control containing DMSO with no compound and a negative control containing carbonyl cyanide m-chlorophenyl hydrazone. Luminescence values were corrected for the background by subtracting the negative control and then normalized to the positive control within the same replicate. Dose–response curves were fit using eq 1, where activity is the relative ATP synthesis activity, [I] is the concentration of inhibitor in μg/mL, and n is the Hill coefficient. [drawing 1] 1

[3] = target: T2, PA ATP synthase expressed in E. coli DK8/pASH20 (Pseudomonas aeruginosa, UniProt Q9HT15); assay: NADH-driven ATP synthesis inhibition, DK8/pASH20 membrane vesicles; format: biochemical; details: for IC50: ATP synthesis IC50, DK8/pASH20 vesicles, wild-type PA ATP synthase in E. coli DK8, NADH-driven, end point luminescence assay; for Hill coefficient of dose response fit, DK8/pASH20 vesicles: inhibition of ATP synthesis activity
T2 construct: expressed in transfected cells; host or cells: E. coli K-12 DK8 (lacks its own ATP synthase) transformed with pASH20 (pBR322 derivative)
Procedure: P. aeruginosa (ATCC 9027) was streaked onto a 10% TSB agar plate and incubated at room temperature for 72 h. A single colony was resuspended in 100 μL of H2O, and 5 μL was used as the DNA template for PCR with Q5 polymerase (NEB) and […] each of forward and reverse primers. Primers were complementary to regions flanking the atp operon and included sequences for HindIII and NdeI restriction sites (see the SI for primer sequences). The resulting 6.9 kbp DNA fragment was digested with HindIII and NdeI and ligated into digested vector pBR322 (New England Biolabs). The resultant pASH20(-i) plasmid contains a partial atpI gene. To complete the atpI gene, the HindII-XhoI fragment of pASH20(-i) was replaced with a synthetic fragment with a complete atpI (Twist Bioscience) to yield pASH20. The sequence of the entire operon was verified by Sanger DNA sequencing through the ligation sites. Subunit c mutations were introduced by exchanging the XhoI-BamHI fragment containing atpE with a synthetic fragment containing mutated atpE (Twist Bioscience).
as §7, §8

[4] = system: EC electron transport chain; assay: Electron transport activity (NADH-driven H+ pumping, ACMA quenching), E. coli DK8/pASH20 vesicles; format: biochemical, Escherichia coli; details: for inhibition of EC ETC-driven H+ pumping, in words: 0-64 µg/mL, Figure S2; for Inhibition of the EC electron transport chain IC50: EC (DK8/pASH20) vesicles
Procedure: Determination of electron transport activity. In an opaque black 96-well plate, inverted membrane
vesicles from PA or E. coli DK8 pASH20 were added to HMK buffer containing 0.3 µg/mL 9-amino-6-chloro-
2-methoxyacridine (ACMA) and 0-64 µg/mL test compound in DMSO. After measurement of baseline
ACMA fluorescence for 60 s, redox-driven H+ pumping was initiated by addition of NADH to 0.8 mM, and
fluorescence quenching was monitored for 120 s before addition of nigericin to 0.5 µg/mL. Relative
activity is reported as the minimum fluorescence value normalized to the maximum fluorescence value
following addition of nigericin. […]

Solubility in DMSO = format: physicochemical

| SMILES | MIC [1] [µg/mL] | antibacterial activity in words, PA 9027 [1] | Antibacterial activity screening result, P∆6 [2] | antibacterial activity (MIC) PΔ6 [2] [µg/mL] | antibacterial activity in words, PΔ6 [2] | Hill coefficient of dose response fit, PA vesicles (PA ATP synthase) | IC50 (PA ATP synthase) | IC50 [3] | Hill coefficient of dose response fit, DK8/pASH20 vesicles [3] | inhibition of EC ETC-driven H+ pumping, in words [4] | Inhibition of the EC electron transport chain IC50 [4] [µg/mL] | solubility in dimethyl sulfoxide (DMSO) (Solubility in DMSO; at 128 μg/mL) | solubility in dimethyl sulfoxide (DMSO) (Solubility in DMSO; at 256 μg/mL) |
| --- | --- | --- | --- | --- | --- | --- | --- | --- | --- | --- | --- | --- | --- |
| CSc1nc2ccccc2cc1CNCc1ccc(CN(C)C)cc1 [Compound 4, N,N-Dimethyl-1-(4-((((2-(methylthio)quinolin-3-yl)methyl)amino)methyl)phenyl)methanamine] | > 256 | inactive | I | 64 to 128 | weakly inhibit | 0.8 | 31.3 µM and 31.6 µM | 86.2 µM and 85.3 µM | 1.0 | mildly inhibited | 61 | very soluble | fully soluble |
| CN(C)Cc1ccc(CNCc2cc3ccccc3nc2SCc2ccccc2)cc1 [Compound 5, 1-(4-((((2-(Benzylthio)quinolin-3-yl)methyl)amino)methyl)phenyl)-N,N-dimethylmethanamine] | > 128 | inactive | I | 16 | more potent | 0.8 | 1.64 µM | 5.38 µM | 1.3 | mildly inhibited | >64 | very soluble | partially soluble |
